Series [1] has as its target T1, ACE (Homo sapiens, UniProt P12821). Nature of the series: ACE-inhibitory activity assay of synthetic peptides (HHL substrate, hippuric acid by RP-HPLC). Type of series: biochemical. The conditions noted are these: for inhibition at 1000 µg/mL: 0.75 h, peptide 1 mg/mL; for IC50: Table 2, top 8 peptides. The method, then: The peptides were prepared by the fmoc solid-phase method (purity ≥ 98% by HPLC) at Genscript Biotech Corporation (Nanjing, China). ACE-inhibitory activity of the synthesized peptides was evaluated according to the method of Ma. et al., with some modifications. In brief, 50 µL of sample was added into 150 µL of 5 mmol·L^−1 hippuryl-l-histidyl-l-leucine (HHL) and incubated for 10 min at 37 °C. Then, the enzymatic reaction was initiated by addition of 50 µL of 50 mU/mL ACE solution and kept at a constant temperature of 37 °C for 45 min. The reaction was then terminated by adding 250 µL of 1 mol·L^−1 HCl. RP-HPLC (Waters, Milford, MA, USA) was used to measure hippuric acid (HA) formation at 220 nm. […] The IC50 value represents the concentration of the peptide that inhibits 50% of ACE activity under the assay conditions.

Series [2] concerns the target T1, ACE. The following applies: read-out: IC50, ACE inhibition, cited from earlier work.
The conditions of series [3]: attributed to multiple hydrophobic amino acids.
The target in series [4] is T1, ACE. Nature of the series: Surface plasmon resonance (SPR) assay. In kind it is binding. How it is done:
The affinity interaction between TLRFALHGME and ACE was verified by SPR experiments. In brief, 5 ug ACE was fixed on a COOH sensor chip by capture-coupling. Afterwards, 50–800 μmol·L^−1 of TLRFALHGME were injected sequentially into the chamber in PBS running buffer. The SPR assay was performed at 25 °C on an OpenSPRTM (Nicoya Lifesciences, Waterloo, QC, Canada). The conditions for the analysis were set at a flow rate of 20 μL·min^−1, the binding time was 240 s, and the disassociation time was 480 s. Chips were regenerated using a regeneration buffer (0.25% SDS). A one-to-one diffusion-corrected model was fitted to the wavelength shifts corresponding to the series of TLRFALHGME concentrations. The kinetic constant analysis was performed using TraceDrawer 1.9.1 software (Ridgeview Instruments AB, Uppsala, Sweden) to determine the association constant (Ka) and dissociation constant (Kd). The affinity constant (KD) was calculated as the ratio kd/ka.

The test system of a further series is hypertensive rats. More on the design: method as in PMID 34783331. The following applies: cited from earlier work.
Series [5] has as its target T2, angiotensin-I-converting enzyme (UniProt P12822 34-1260).
T2 sequence (looked up): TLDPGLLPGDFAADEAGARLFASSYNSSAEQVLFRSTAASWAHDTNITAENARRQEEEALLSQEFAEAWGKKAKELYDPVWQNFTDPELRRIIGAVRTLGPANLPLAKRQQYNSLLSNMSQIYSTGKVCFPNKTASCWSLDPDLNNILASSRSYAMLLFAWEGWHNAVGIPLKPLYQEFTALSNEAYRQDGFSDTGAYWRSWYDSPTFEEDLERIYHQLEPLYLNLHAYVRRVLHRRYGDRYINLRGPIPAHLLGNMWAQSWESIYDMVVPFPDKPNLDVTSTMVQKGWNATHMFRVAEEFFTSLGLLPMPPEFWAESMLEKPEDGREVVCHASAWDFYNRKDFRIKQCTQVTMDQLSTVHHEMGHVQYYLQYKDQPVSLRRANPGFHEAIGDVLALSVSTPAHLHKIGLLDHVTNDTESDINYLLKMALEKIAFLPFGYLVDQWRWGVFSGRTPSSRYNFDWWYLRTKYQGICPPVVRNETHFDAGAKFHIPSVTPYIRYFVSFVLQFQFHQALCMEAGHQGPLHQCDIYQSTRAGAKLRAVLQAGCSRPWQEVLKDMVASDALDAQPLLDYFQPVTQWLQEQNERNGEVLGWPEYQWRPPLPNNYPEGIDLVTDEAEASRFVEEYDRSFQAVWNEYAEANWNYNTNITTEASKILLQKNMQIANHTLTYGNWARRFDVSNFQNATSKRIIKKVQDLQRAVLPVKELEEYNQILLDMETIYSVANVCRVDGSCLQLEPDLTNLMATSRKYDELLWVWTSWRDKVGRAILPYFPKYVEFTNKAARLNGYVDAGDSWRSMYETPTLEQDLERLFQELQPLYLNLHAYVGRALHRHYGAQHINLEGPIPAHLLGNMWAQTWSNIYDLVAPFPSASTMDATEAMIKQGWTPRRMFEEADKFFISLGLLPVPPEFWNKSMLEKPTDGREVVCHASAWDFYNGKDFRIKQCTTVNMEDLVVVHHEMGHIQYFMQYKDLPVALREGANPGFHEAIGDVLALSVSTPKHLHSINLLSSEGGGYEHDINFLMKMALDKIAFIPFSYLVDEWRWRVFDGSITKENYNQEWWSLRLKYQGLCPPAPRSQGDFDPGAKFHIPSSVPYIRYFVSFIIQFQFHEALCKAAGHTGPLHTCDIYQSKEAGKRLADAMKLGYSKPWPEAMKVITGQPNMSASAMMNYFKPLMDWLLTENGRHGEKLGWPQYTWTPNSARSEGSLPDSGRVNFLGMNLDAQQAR

Series [6] has as its target T2, angiotensin-I-converting enzyme. Nature of the series: cell-based or functional assay.
Where [7] appears, read: from Volutharpa ampullacea perryi hydrolysate, Zn-SBA-15-immobilized ACE and HPLC.

Data on 20 molecules can be found in paper PMC10608451, “Affinity Purification and Molecular Characterization of Angiotensin-Converting Enzyme (ACE)-Inhibitory Peptides from Takifugu flavidus” (Marine Drugs, 2023).

Read-outs that look alike come from different tables or passages of the source. Where a SMILES comes first, the peptide text is derived from it. Where no end group is shown, it is not given here.

T1 sequence (P12821 30-1306, species assumed): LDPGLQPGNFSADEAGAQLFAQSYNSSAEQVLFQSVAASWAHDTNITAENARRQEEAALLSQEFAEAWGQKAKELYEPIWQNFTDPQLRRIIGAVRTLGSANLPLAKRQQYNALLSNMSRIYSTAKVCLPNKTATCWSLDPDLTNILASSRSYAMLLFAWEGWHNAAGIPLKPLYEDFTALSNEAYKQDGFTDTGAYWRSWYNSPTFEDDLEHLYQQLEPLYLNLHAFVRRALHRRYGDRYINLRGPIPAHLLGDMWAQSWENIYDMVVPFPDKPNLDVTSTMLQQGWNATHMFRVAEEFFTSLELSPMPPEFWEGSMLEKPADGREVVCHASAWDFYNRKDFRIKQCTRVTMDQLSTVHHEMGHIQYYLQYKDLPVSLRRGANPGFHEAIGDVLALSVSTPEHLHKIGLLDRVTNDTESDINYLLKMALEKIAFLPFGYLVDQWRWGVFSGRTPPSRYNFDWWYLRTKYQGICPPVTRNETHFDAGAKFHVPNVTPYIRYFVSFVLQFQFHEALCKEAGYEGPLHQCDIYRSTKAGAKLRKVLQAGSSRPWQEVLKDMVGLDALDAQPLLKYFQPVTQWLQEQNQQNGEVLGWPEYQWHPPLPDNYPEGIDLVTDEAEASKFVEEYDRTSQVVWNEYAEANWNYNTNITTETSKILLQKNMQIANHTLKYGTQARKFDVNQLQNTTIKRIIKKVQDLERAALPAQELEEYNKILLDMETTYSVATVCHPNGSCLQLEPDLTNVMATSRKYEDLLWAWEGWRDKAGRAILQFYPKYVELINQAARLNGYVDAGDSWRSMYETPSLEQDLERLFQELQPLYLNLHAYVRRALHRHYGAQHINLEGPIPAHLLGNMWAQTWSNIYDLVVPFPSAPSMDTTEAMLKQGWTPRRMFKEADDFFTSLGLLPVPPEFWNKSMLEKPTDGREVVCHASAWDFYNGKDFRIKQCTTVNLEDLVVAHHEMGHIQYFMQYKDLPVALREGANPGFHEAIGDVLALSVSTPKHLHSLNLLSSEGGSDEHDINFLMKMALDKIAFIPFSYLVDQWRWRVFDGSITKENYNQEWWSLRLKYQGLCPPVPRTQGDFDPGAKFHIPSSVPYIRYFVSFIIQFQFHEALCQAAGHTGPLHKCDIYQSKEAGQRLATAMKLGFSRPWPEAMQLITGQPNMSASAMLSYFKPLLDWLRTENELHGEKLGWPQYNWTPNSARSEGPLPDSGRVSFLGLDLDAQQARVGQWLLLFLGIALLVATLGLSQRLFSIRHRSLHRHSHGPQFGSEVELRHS

`CC(C)C[C@H](NC(=O)[C@H](C)NC(=O)[C@H](C)NC(=O)[C@@H](N)CO)C(=O)O` [SAAL] (H-SAAL-OH; N-terminus and C-terminus assumed): on ACE [1], the inhibition at 1000 µg/mL was more than 50% and the IC50 turned out to be 883 µM.

At ACE [1], `CC(C)C[C@H](NC(=O)[C@H](CC(C)C)NC(=O)[C@@H](NC(=O)[C@@H](N)[C@@H](C)O)C(C)C)C(=O)O` [TVLL] (H-TVLL-OH; N-terminus and C-terminus assumed) showed an inhibition at 1000 µg/mL of more than 50% and an IC50 of 582 µM. As for `CC(C)C[C@H](NC(=O)[C@@H](N)C(C)C)C(=O)NCC(=O)N[C@@H](C)C(=O)O` [VLGA] (H-VLGA-OH; N-terminus and C-terminus assumed), on ACE [1], the inhibition at 1000 µg/mL was more than 50% and the IC50 came out at 1370 µM. `CC(C)C[C@H](NC(=O)[C@H](CC(C)C)NC(=O)[C@@H](NC(=O)[C@@H](N)Cc1ccc(O)cc1)C(C)C)C(=O)O` [YVLL] (H-YVLL-OH; N-terminus and C-terminus assumed): at ACE [1], the inhibition at 1000 µg/mL was more than 50% and the IC50 was found to be 154 µM. As for IVTNWDDMEL, the IC50 with ACE [2] (setting [7]) is 2080 µM. In the case of RSTGALAL [RSTGALAL], at ACE [1], the inhibition at 1000 µg/mL was more than 50% and the IC50 came out at 5840 µM. At ACE [1], TFTGA [TFTGA] registered an inhibition at 1000 µg/mL of more than 50% and a half-inhibitory concentration (IC50) of 694 µM.

With TLFGL [TLFGL], the Solubility entry in series [3] is “low solubility”. Moreover, on ACE [1], the inhibition at 1000 µg/mL is more than 50% and 57.5 µM corresponded to half-maximal inhibition (IC50).

Turning to TLRFALHGME [TLRFALHGME], the koff on ACE [4] (25 °C, 50–800 µmol·L^−1 peptide, read-out: Kd (dissociation rate constant)) is 0.002 s⁻¹. On ACE [4] (KD, printed in Figure 7), this molecule returned a Kd of 80.8 µM. Besides, the Kd at ACE [4] (abstract, read-out: Kd (binding affinity to ACE)) is 80.9 µM. Moreover, on ACE [1], the inhibition at 1000 µg/mL was more than 50% and the IC50 came out at 93.5 µM. For the molecule VGPAGRPG, the IC50 in the series with ACE [2] (setting [7]) is 4660 µM. Consider VYP, for which the half-maximal inhibitory concentration (IC50) at ACE [2] (from lizard fish protein hydrolysates, MA-IML) is 108 µM. For WGAP, in the series with hypertensive rats, the “Reduction of diastolic blood pressure” value is reported as not above 28.56 ± 2.71 mmHg and the “Reduction of systolic blood pressure” value was “up to 42.66 ± 2.87 mmHg”. In series [5], YVLL displayed an ACE-inhibitory activity (hippuric acid formed from HHL, RP-HPLC), IC50 of 154 µM.

B1: TLRFALHGME (peptide)
peptide: TLRFALHGME
notes: source: Takifugu flavidus skin hydrolysate (alcalase, <1 kDa fraction); also synthetic peptide (Fmoc solid phase, Genscript)
Take B1: the “ACE-inhibitory activity (hippuric acid formed from HHL, RP-HPLC), IC50” value (shortened to “ACE-inhibitory activity”) in series [6] turned out to be 93.5 µM. Regarding SAAL, the ACE-inhibitory activity (hippuric acid formed from HHL, RP-HPLC), IC50 in series [5] is 883 µM.

Molecule TVLL had an ACE-inhibitory activity (hippuric acid formed from HHL, RP-HPLC), IC50 in series [5] of 582 µM. As for TFTGA, in series [6], the “ACE-inhibitory activity” value is 694 µM.

Turning to RSTGALAL, the “ACE-inhibitory activity” value in series [6] was 5840 µM. Regarding TLFGL, the “ACE-inhibitory activity” value in series [6] came out at 57.5 µM. In turn, VLGA had an ACE-inhibitory activity (hippuric acid formed from HHL, RP-HPLC), IC50 in series [5] of 1370 µM.
